Experimental data as given in patent US8431593B2, “Heteroaryl amide derivatives” (H. Lundbeck A/S, priority 2006, dated 2013).

Biological target: T1, P2X7 receptor (Homo sapiens, UniProt Q99572)
T1 construct: host or cells: SH-SY5Y
T1 sequence (Q99572 1-595): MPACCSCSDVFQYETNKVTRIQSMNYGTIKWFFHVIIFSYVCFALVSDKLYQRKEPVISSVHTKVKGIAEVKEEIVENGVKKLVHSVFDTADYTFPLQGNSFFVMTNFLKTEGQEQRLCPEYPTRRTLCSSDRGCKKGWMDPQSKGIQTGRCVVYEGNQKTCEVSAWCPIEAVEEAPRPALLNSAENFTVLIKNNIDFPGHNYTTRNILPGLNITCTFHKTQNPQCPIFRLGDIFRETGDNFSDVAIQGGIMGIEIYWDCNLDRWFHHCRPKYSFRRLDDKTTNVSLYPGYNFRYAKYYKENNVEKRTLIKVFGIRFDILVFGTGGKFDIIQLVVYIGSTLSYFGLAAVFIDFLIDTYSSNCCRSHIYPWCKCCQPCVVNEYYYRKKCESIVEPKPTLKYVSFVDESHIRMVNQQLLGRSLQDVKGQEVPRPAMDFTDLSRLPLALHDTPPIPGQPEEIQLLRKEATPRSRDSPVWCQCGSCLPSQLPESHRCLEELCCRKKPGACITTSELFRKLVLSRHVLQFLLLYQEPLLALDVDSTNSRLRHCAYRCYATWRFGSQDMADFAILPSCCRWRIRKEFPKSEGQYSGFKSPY
Assay: P2X7 calcium mobilization assay, high throughput, antagonist activity (Example 4A)
Assay type: cell-based
Details: 50% decrease in the fluorescence response of cells exposed to 80 μM 2′(3′)-O-(4-benzoyl-benzoyl)adenosine 5′-triphosphate; Example 4A; read-out: IC50
Method in brief: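 Dye-loaded cells (100,000/well, seeded previous day) are pre-exposed to compound for an hour at room temperature. Fluorescence maxima are baseline-corrected against no-agonist wells and compared with the averaged agonist-well maximum.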

Structure (SMILES)	IC50
CC1(C)[C@@H]2CC[C@@H](CNC(=O)c3cccc4nc(CC(=O)N5CC[C@@H](N)C5)cn34)[C@H]1C2 [Compound 588, 2-{2-[(3R)-3-aminopyrrolidin-1-yl]-2-oxoethyl}-N-{[(1R,2R,5R)-6,6-dimethylbicyclo[3.1.1]hept-2-yl]methyl}imidazo [1,2-a]pyridine-5-carboxamide]	< 2000 nM
CC1(C)[C@@H]2CC[C@@H](CNC(=O)c3cccc4nc(CC(=O)NCC5CCNCC5)cn34)[C@H]1C2 [Compound 589, N-{[(1R,2R,5R)-6,6-dimethylbicyclo[3.1.1]hept-2-yl]methyl}-2-{2-oxo-2-[(piperidin-4-ylmethyl)amino]ethyl} imidazo[1,2-a]pyridine-5-carboxamide]	< 2000 nM
CC1(C)[C@@H]2CC[C@@H](CNC(=O)c3cccc4nc(CC(=O)NCC5CCCN5)cn34)[C@H]1C2 (stereo partly drawn) [Compound 590, N-{[(1R,2R,5R)-6,6-dimethylbicyclo[3.1.1]hept-2-yl]methyl}-2-{2-oxo-2-[(pyrrolidin-2-ylmethyl)amino]ethyl} imidazo[1,2-a]pyridine-5-carboxamide]	< 2000 nM
CC1(C)[C@@H]2CC[C@@H](CNC(=O)c3cccc4nc(CC(=O)NC5CCNC5)cn34)[C@H]1C2 (stereo partly drawn) [Compound 591, N-{[(1R,2R,5R)-6,6-dimethylbicyclo[3.1.1]hept-2-yl]methyl}-2-[2-oxo-2-(pyrrolidin-3-ylamino)ethyl]imidazo [1,2-a]pyridine-5-carboxamide]	< 2000 nM
CC1(C)[C@@H]2CC[C@@H](CNC(=O)c3cccc4nc(CC(=O)NC5CCNCC5)cn34)[C@H]1C2 [Compound 592, N-{[(1R,2R,5R)-6,6-dimethylbicyclo[3.1.1]hept-2-yl]methyl}-2-[2-oxo-2-(piperidin-4-ylamino)ethyl]imidazo [1,2-a]pyridine-5-carboxamide]	< 2000 nM
CC1(C)[C@@H]2CC[C@@H](CNC(=O)c3cccc4nc(CC(=O)N5CCOC(CN)C5)cn34)[C@H]1C2 (stereo partly drawn) [Compound 594, 2-{2-[2-(aminomethyl)morpholin-4-yl]-2-oxoethyl}-N-{[(1R,2R,5R)-6,6-dimethylbicyclo [3.1.1]hept-2-yl]methyl}imidazo[1,2-a]pyridine-5-carboxamide]	< 2000 nM
Cc1cc(-c2cn3c(C(=O)NCC(CC(C)C)c4cccnc4)cccc3n2)n[nH]1 (stereo not drawn) [Compound 595, 2-(5-methyl-1H-pyrazol-3-yl)-N-(4-methyl-2-pyridin-3-ylpentyl)imidazo[1,2-a]pyridine-5-carboxamide]	< 2000 nM
CNCc1cn2c(C(=O)NCC34CC5CC(CC(C5)C3)C4)cccc2n1 [Compound 596, N-(adamantan-1-ylmethyl)-2-[(methylamino)methyl] imidazo[1,2-a] pyridine-5-carboxamide]	< 2000 nM
CC(C)NCc1cn2c(C(=O)NCC34CC5CC(CC(C5)C3)C4)cccc2n1 [Compound 597, N-(adamantan-1-ylmethyl)-2-[(isopropylamino)methyl]imidazo [1,2-a]pyridine-5-carboxamide]	< 2000 nM
N#CCc1cn2c(C(=O)NCC34CC5CC(CC(C5)C3)C4)cccc2n1 [Compound 598, N-(adamantan-1-ylmethyl)-2-(cyanomethyl)imidazo [1,2-a]pyridine-5-carboxamide]	< 2000 nM
O=C(NCC12CC3CC(CC(C3)C1)C2)c1cccc2nc(CCI)cn12 [Compound 599, N-(adamantan-1-ylmethyl)-2-(2-iodoethyl)imidazo[1,2-a]pyridine-5-carboxamide]	< 2000 nM
C[C@@H]1CNCCN1C(=O)c1cn2c(C(=O)NCC34CC5CC(CC(C5)C3)C4)cccc2n1 [Compound 600, N-(adamantan-1-ylmethyl)-2-{[(2R)-2-methylpiperazin-1-yl]carbonyl}imidazo[1,2-a]pyridine-5-carboxamide]	< 2000 nM
C[C@H]1CNCCN1C(=O)c1cn2c(C(=O)NCC34CC5CC(CC(C5)C3)C4)cccc2n1 [Compound 601, N-(adamantan-1-ylmethyl)-2-{[(2S)-2-methylpiperazin-1-yl]carbonyl}imidazo [1,2-a]pyridine-5-carboxamide]	< 2000 nM
CC1CNCCN1C(=O)c1cn2c(C(=O)NCC34CC5CC(CC(C5)C3)C4)cccc2n1 (stereo not drawn) [Compound 602, N-(adamantan-1-ylmethyl)-2-[(2-methylpiperazin-1-yl)carbonyl]imidazo[1,2-a]pyridine-5-carboxamide]	< 2000 nM
O=C(NCC12CC3CC(CC(C3)C1)C2)c1cccc2nc(C(=O)N3CCNCC3)cn12 [Compound 603, N-(adamantan-1-ylmethyl)-2-(piperazin-1-ylcarbonyl) imidazo[1,2-a]pyridine-5-carboxamide]	< 2000 nM
C[C@@H]1CN(C(=O)c2cn3c(C(=O)NCC45CC6CC(CC(C6)C4)C5)cccc3n2)CCN1 [Compound 604, N-(adamantan-1-ylmethyl)-2-{[(3R)-3-methylpiperazin-1-yl]carbonyl}imidazo[1,2-a]pyridine-5-carboxamide]	< 2000 nM
CN(C(=O)c1cn2c(C(=O)NCC34CC5CC(CC(C5)C3)C4)cccc2n1)C1CCCNC1 (stereo not drawn) [Compound 605, 5-N-(adamantan-1-ylmethyl)-2-N-methyl-2-N-piperidin-3-ylimidazo[1,2-a]pyridine-2,5-dicarboxamide]	< 2000 nM
CN(C(=O)c1cn2c(C(=O)NCC34CC5CC(CC(C5)C3)C4)cccc2n1)C1CCNCC1 [Compound 606, 5-N-(adamantan-1-ylmethyl)-2-N-methyl-2-N-piperidin-4-ylimidazo[1,2-a]pyridine-2,5-dicarboxamide]	< 2000 nM
O=C(NCC12CC3CC(CC(C3)C1)C2)c1cccc2nc(C(=O)N3CCCNCC3)cn12 [Compound 608, N-(adamantan-1-ylmethyl)-2-(1,4-diazepan-1-ylcarbonyl)imidazo[1,2-a]pyridine-5-carboxamide]	< 2000 nM
O=C(NCC12CC3CC(CC(C3)C1)C2)c1cccc2nc(C(=O)N3C[C@@H]4C[C@H]3CN4)cn12 [Compound 609, N-(adamantan-1-ylmethyl)-2-[(1S,4S)-2,5-diazabicyclo [2.2.1]hept-2-ylcarbonyl]imidazo[1,2-a]pyridine-5-carboxamide]	< 2000 nM
CN(C)CCCN(C(=O)c1cn2c(C(=O)NCC34CC5CC(CC(C5)C3)C4)cccc2n1)C1CCNCC1 [Compound 610, 5-N-(adamantan-1-ylmethyl)-2-N-[3-(dimethylamino)propyl]-2-N-piperidin-4-ylimidazo[1,2-a]pyridine-2,5-dicarboxamide]	< 2000 nM
CNC1CCN(C(=O)c2cn3c(C(=O)NCC45CC6CC(CC(C6)C4)C5)cccc3n2)C1 (stereo not drawn) [Compound 611, N-(adamantan-1-ylmethyl)-2-{[3-(methylamino)pyrrolidin-1-yl]carbonyl}imidazo[1,2-a]pyridine-5-carboxamide]	< 2000 nM
CC(C)[C@H]1CNCCN1C(=O)c1cn2c(C(=O)NCC34CC5CC(CC(C5)C3)C4)cccc2n1 [Compound 612, N-(adamantan-1-ylmethyl)-2-{[(2S)-2-isopropylpiperazin-1-yl]carbonyl}imidazo[1,2-a]pyridine-5-carboxamide]	< 2000 nM
CC(C)[C@@H]1CNCCN1C(=O)c1cn2c(C(=O)NCC34CC5CC(CC(C5)C3)C4)cccc2n1 [Compound 613, N-(adamantan-1-ylmethyl)-2-{[(2R)-2-isopropylpiperazin-1-yl]carbonyl}imidazo[1,2-a]pyridine-5-carboxamido]	< 2000 nM
